The record followed here is ChEMBL document CHEMBL4616600, “Synthesis and cytotoxic evaluation of halogenated α-exo-methylene-lactones” (Bioorg Med Chem, 2020).

For one test, the system named is A-431. As to the kind of experiment: Antiproliferative activity against human A431 wild type cells measured after 72 hrs by Sulforhodamine B assay. As to conditions: A-431, 72 h. It counts as functional, cell-based. For orientation: The SRB assay estimates cell density from bound dye.
Test [1] in a line: Antiproliferative activity against human H1975-1 harboring EGFR L858R/T790M mutant measured after 72 hrs by sulforhodamine B assay. The class given is functional.
The subject of the next test is HCC827. As to the kind of experiment: Antiproliferative activity against human HCC827 cells measured after 72 hrs by sulforhodamine B assay. It counts as functional, cell-based. As to conditions: HCC827, 72 h.
In another test the test system is L02. As to the kind of experiment: Cytotoxicity against human HL7702 cells measured after 72 hrs by sulforhodamine B assay. It counts as cell-based. As to conditions: L02, 72 h.
Test [2] addresses Epidermal growth factor receptor (Homo sapiens, UniProt P00533, L858R/T790M). As to the kind of experiment: Inhibition of EGFR L858R/T790M (unknown origin).
Another test concerns A549. As to the kind of experiment: Antiproliferative activity against human A549 cells measured after 72 hrs by sulforhodamine B assay. It counts as functional, cell-based. As to conditions: A549, 72 h.
Test [3] deals with Epidermal growth factor receptor (Homo sapiens, UniProt P00533). As to the kind of experiment: Inhibition of wild type EGFR (unknown origin).

As usually defined, the IC50 is the midpoint of a concentration-inhibition curve. Read a high IC50 as lower potency.

Sequence of Epidermal growth factor receptor (Homo sapiens, UniProt P00533, L858R/T790M) (P00533 25-1210 T790M/L858R limits assumed): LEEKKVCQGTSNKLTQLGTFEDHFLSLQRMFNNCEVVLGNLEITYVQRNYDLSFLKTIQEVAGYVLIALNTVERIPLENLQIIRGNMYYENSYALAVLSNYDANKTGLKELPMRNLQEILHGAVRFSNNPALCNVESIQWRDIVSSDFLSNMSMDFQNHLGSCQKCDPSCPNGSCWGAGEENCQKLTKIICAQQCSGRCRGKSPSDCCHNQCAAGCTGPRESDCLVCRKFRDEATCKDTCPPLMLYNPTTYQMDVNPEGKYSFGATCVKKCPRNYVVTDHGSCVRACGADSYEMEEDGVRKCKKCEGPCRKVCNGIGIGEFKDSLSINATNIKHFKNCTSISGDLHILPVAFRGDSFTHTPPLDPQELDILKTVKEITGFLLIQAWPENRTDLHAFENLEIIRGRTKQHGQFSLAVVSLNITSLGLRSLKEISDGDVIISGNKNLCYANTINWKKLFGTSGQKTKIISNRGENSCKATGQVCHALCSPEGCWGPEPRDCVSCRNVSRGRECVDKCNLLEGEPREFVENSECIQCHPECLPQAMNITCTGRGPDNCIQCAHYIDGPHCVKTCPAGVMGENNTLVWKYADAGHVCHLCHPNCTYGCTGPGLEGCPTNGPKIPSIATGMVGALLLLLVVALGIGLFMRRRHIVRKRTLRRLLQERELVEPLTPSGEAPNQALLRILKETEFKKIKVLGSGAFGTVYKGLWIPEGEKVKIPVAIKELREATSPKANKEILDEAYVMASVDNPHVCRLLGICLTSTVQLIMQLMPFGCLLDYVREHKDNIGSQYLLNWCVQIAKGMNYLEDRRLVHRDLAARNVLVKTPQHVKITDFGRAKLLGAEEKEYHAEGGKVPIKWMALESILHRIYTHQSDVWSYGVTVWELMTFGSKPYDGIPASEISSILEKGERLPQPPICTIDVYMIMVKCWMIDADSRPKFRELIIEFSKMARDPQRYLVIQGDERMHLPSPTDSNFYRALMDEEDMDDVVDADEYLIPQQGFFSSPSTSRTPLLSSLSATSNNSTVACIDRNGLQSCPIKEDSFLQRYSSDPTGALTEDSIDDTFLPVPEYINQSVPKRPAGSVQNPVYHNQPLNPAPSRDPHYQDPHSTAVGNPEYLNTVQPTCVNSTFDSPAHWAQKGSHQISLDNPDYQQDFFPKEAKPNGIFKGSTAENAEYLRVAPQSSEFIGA
Sequence of Epidermal growth factor receptor (Homo sapiens, UniProt P00533) (P00533 whole entry): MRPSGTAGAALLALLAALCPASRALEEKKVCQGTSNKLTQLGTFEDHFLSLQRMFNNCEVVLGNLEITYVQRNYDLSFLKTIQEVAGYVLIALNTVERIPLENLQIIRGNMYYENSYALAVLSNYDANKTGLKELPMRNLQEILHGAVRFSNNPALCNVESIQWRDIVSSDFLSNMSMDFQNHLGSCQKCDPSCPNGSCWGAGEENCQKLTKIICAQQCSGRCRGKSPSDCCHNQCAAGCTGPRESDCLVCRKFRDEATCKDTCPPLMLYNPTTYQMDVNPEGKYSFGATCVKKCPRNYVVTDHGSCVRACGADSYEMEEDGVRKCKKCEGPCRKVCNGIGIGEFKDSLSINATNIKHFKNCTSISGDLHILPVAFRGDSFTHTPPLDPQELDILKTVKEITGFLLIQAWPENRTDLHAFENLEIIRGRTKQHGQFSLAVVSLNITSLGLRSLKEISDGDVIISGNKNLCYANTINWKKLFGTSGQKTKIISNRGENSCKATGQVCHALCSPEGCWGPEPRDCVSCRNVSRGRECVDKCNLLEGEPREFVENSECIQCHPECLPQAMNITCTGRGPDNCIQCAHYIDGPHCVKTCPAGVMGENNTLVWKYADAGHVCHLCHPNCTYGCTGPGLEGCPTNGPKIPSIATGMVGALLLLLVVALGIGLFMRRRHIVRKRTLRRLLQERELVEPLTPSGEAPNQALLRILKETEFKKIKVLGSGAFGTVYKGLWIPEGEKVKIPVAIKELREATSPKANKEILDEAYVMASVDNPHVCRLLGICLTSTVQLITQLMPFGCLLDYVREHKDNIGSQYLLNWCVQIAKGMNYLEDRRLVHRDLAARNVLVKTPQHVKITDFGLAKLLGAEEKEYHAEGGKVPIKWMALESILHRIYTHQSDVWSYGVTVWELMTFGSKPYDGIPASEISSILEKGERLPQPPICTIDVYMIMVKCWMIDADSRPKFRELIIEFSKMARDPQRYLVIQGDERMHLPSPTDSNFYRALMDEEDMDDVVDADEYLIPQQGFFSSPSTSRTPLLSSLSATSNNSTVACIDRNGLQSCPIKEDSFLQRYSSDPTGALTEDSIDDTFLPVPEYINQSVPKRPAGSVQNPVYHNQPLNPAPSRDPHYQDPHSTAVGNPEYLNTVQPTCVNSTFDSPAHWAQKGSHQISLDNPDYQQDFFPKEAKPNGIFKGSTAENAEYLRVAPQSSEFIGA

Regarding `C=C1C(=O)O[C@@H]2C3O[C@]3(C)CC/C=C(\C)CC[C@@H]12` (stereo partly drawn), the IC50 came out at 2570 nM in the test on A-431 and 1430 nM in test [1].
For `C=C1C[C@](CCl)(c2ccccc2)OC1=O` the same measures were 30600 nM and 9770 nM.
For `C=C1C[C@@](CCl)(c2ccccc2)OC1=O` the same measures were 43000 nM and 21400 nM.
With `C=C1C[C@]2(Cc3ccccc3[C@H]2Br)OC1=O`, the IC50 in the test on A-431 is 2090 nM; in test [1] it was 4390 nM.
Turning to `C=C1C[C@]2(CCCc3ccccc3[C@H]2Br)OC1=O`, the IC50 is 3300 nM with A-431 and 1200 nM in test [1].
For `C=C1CC[C@](CBr)(c2ccccc2)OC1=O`, the IC50 in the test on A-431 is 10900 nM; in test [1], 1330 nM.
In the case of `C=C1C[C@]2(CCc3ccccc3[C@H]2Br)OC1=O`, the IC50 with A-431 was found to be 4100 nM; in test [1], 1220 nM.
For `C=C1CC[C@@](CBr)(c2ccccc2)OC1=O` the same measures were 2200 nM and 1620 nM.
For `C=C1C[C@@]2(CCCc3ccccc3[C@@H]2Br)OC1=O` the same measures were 2500 nM and 1000 nM.
For `C=C1C[C@](CBr)(c2ccccc2)OC1=O` the same measures were 1330 nM and 970 nM.
As to `C=C1CC(CBr)(c2ccc(C)cc2)OC1=O` (racemic), the IC50 in the test on A-431 came out at 2200 nM; in test [1] it was 1100 nM.
Regarding `C=C1CC(CI)(c2ccc(F)cc2)OC1=O` (racemic), the concentration for half-maximal inhibition (IC50) turned out to be 1100 nM with HCC827; 1200 nM in the test on L02; 15000 nM in test [2]; 1210 nM in the test with A549; 1900 nM with A-431; 24000 nM in test [3]. Half-maximal inhibition in test [1] (IC50) was put at 600 nM.
Regarding `C=C1CC(CBr)(c2ccccc2C)OC1=O` (racemic), the IC50 amounted to 5500 nM in the test on A-431 and 3500 nM in test [1].
For `C=C1CC(c2ccccc2)(C(Cl)c2ccccc2)OC1=O` (racemic) the same measures were 2770 nM and 1260 nM.
Turning to `C=C1C[C@]2(CCCC[C@H]2Br)OC1=O` (racemic), the values for the IC50 (in the test with A-431; in test [1]) were 21200 nM and 4550 nM, respectively.
Consider `C=C1CC(CO)(c2ccccc2)OC1=O` (racemic), for which the IC50 came to 4060 nM in the test on A-431 and 2260 nM in test [1].
For `C=C1CC(C[Se]c2ccccc2)(c2ccccc2)OC1=O` (racemic) the same measures were 1270 nM and 1300 nM.
For `C=C1CC(CBr)(c2ccc(OC)cc2)OC1=O` (racemic) the same measures were 4200 nM and 2300 nM.
For `C=C1CC(CBr)(c2ccccc2OC)OC1=O` (racemic) the same measures were 2400 nM and 1100 nM.
Regarding `C=C1CC(c2ccccc2)(C(C)Br)OC1=O` (racemic), the IC50 in the test on A-431 was found to be 5240 nM; in test [1], 1660 nM.
For `C=C1CC2(CCCc3ccccc3C2Br)OC1=O` (racemic) the same measures were 1270 nM and 1080 nM.
Take `C=C1CC(CBr)(c2ccc(Cl)cc2)OC1=O` (racemic): the IC50 in the test with A-431 worked out at 1100 nM; in test [1], 1540 nM.
Turning to `C=C1CC(CF)(c2ccccc2)OC1=O` (racemic), the IC50 in the test with A-431 worked out at 25100 nM; in test [1], 13400 nM.
`C=C1CC(CBr)(c2ccc(F)cc2)OC1=O` (racemic): the IC50 was determined as 2300 nM with HCC827; 2400 nM in the test on L02; 30000 nM in test [2]; 1680 nM in the test with A549; 800 nM in the test on A-431; 64000 nM in test [3]. Besides, the midpoint of inhibition in test [1], the IC50, lay at 600 nM.
On to `C=C1CC(CBr)(c2ccccc2F)OC1=O` (racemic), for which the figures for the IC50 (in the test with A-431; in test [1]) were 1700 nM and 1300 nM, respectively.
With `C=C1CC(CBr)(c2ccc(C(F)(F)F)cc2)OC1=O` (racemic), the IC50 with A-431 turned out to be 1010 nM; in test [1], 1940 nM.
Regarding `C=C1CC(CI)(c2ccccc2)OC1=O` (racemic), the half-maximal inhibitory concentration (IC50) in the test with HCC827 came to 2200 nM; in the test with L02, 2200 nM; in test [2], 26000 nM; with A549, 1980 nM; with A-431, 2720 nM; in test [3] it was 47000 nM. Moreover, half-maximal inhibition in test [1] (IC50) was put at 650 nM.
In the case of `C=C1CC(CBr)(c2ccccc2)OC1=O` (racemic), the IC50 is 1480 nM with A-431 and 800 nM in test [1].
With `C=C1CC(c2ccccc2)(C(Br)c2ccccc2)OC1=O` (racemic), the IC50 stood at 1000 nM in the test on HCC827; 960 nM with L02; 14000 nM in test [2]; 1370 nM with A549; 4190 nM in the test with A-431; 29000 nM in test [3]. Further, the IC50 in test [1] came to 250 nM.
As for `C=C1CC(C)(CBr)OC1=O` (racemic), the values for the IC50 (in the test on A-431; in test [1]) were 124000 nM and 32000 nM, respectively.
Take `C=C1CN(S(=O)(=O)c2ccc([N+](=O)[O-])cc2)CC(CBr)(c2ccccc2)OC1=O` (racemic): the 50% inhibitory concentration (IC50) with A-431 was determined as 21200 nM; in test [1], 24200 nM.
For `C=C1CC(CBr)(c2cccc(C)c2)OC1=O` (racemic) the same measures were 4500 nM and 1200 nM.
For `C=C1CC(C(Br)c2ccccc2)OC1=O` (racemic) the same measures were 20300 nM and 6200 nM.
Turning to `C=CC(=O)Nc1cc(Nc2nccc(-c3cn(C)c4ccccc34)n2)c(OC)cc1N(C)CCN(C)C` [OSIMERTINIB], the IC50 worked out at 200 nM in the test with HCC827; 300 nM in the test with L02; 140 nM in the test with A549; […] with A-431; 20 nM in test [1].
With `CC(=O)O[C@H]1C(=O)[C@@]2(C)[C@H]([C@H](OC(=O)c3ccccc3)[C@]3(O)C[C@H](OC(=O)[C@H](O)[C@@H](NC(=O)c4ccccc4)c4ccccc4)C(C)=C1C3(C)C)[C@]1(OC(C)=O)CO[C@@H]1C[C@@H]2O` [PACLITAXEL], the IC50 in the test on A-431 stood at 2 nM; in test [1], 3 nM.
